Drawing on patent US9382197B2, “Substituted hydroxamic acids and uses thereof” (Millennium Pharmaceuticals, Inc., priority 2010, dated 2016), this text covers IC50 for 32 compounds.

The first test deals with T1, purified human HDAC6 (Homo sapiens, UniProt Q9UBN7).
T1 construct: purchased BPS Bioscience 5006
T1 sequence (Q9UBN7 1-1215): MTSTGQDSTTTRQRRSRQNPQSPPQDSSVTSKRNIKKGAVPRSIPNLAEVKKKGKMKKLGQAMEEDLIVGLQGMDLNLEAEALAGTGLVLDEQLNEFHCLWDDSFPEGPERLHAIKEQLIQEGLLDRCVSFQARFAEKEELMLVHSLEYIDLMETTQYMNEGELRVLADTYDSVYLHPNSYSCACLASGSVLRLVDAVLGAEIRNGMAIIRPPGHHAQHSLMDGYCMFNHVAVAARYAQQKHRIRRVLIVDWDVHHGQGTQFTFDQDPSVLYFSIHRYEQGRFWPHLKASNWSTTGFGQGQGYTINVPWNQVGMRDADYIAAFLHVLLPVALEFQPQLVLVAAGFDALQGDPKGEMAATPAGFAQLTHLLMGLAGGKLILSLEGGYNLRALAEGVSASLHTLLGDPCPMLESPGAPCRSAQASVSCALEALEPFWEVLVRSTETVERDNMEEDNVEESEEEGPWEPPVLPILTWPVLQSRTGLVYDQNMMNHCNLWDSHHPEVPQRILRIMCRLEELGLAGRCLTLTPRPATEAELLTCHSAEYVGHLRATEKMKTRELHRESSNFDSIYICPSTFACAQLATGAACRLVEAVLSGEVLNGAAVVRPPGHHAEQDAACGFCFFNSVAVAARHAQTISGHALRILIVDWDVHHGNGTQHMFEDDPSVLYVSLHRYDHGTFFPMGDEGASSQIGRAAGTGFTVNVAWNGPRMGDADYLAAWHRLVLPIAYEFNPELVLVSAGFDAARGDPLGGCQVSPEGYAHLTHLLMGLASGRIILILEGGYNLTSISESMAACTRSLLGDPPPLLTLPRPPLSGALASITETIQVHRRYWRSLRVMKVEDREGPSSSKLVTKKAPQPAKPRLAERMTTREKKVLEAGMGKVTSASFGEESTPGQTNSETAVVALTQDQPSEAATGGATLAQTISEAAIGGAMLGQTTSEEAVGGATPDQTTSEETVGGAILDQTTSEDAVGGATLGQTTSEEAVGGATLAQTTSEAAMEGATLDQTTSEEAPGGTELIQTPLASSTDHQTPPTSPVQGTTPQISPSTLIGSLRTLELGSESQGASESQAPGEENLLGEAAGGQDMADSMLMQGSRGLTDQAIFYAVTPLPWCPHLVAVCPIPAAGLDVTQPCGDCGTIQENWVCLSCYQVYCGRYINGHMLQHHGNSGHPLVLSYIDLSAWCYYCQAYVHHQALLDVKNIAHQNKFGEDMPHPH
The test is described as follows: HDAC6 Enzyme Assay. It is filed as biochemical. Conditions: bin: greater than 500 nM and less than 1 μM (lower bound in nM, upper bound in μM). The procedure, abridged: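 Purified human HDAC6 incubated 1 h at 30 °C with Ac-Arg-Gly-Lys(Ac)-AMC and compound; trichostatin A stop, trypsin release of AMC, fluorescence Ex 340/Em 460 nm. IC50 from concentration–response relative to DMSO.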
`CC(C)C(NC(=O)C(c1ccccc1)c1ccccc1)c1ccc(C(=O)NO)cc1` (centres unmarked) [Compound I-204, 4-{1-[(diphenylacetyl)amino]-2-methylpropyl}-N-hydroxybenzamide] registered an IC50 of 500 to 1000 nM. `CC(NC(=O)Cc1csc2ccc(Cl)cc12)c1cccc(C(=O)NO)c1` (centres unmarked) [Compound I-13, 3-(1-{[(5-chloro-1-benzothien-3-yl)acetyl]amino}ethyl)-N-hydroxybenzamide] returned an IC50 of 500 to 1000 nM.

In turn, `CC(C)(C)C(NC(=O)c1cc(F)cc(F)c1)c1ccc(C(=O)NO)cc1` (centres unmarked) [Compound I-251, 3,5-difluoro-N-(1-{4-[(hydroxyamino)carbonyl]phenyl}-2,2-dimethylpropyl)benzamide] came in with an IC50 of 500 to 1000 nM. Turning to `CC(NC(=O)c1ccc(C(C)(C)C)cc1)c1cccc(C(=O)NO)c1` (centres unmarked) [Compound I-268, 3-{1-[(4-tert-butylbenzoyl)amino]ethyl}-N-hydroxybenzamide], the IC50 was 500 to 1000 nM.

Still in this test, the particulars now being: bin: greater than 1 μM.
`CC(NC(=O)C12CC3CC(CC(C3)C1)C2)c1cccc(C(=O)NO)c1` (centres unmarked) [Compound I-83, N-(1-{3-[(hydroxyamino)carbonyl]phenyl}ethyl)adamantane-1-carboxamide]: the 50% inhibitory concentration (IC50) is more than 1000 nM.

Regarding `CC(C)C(=O)NC(C)c1ccc(C(=O)NO)cc1` (centres unmarked) [Compound I-36, N-hydroxy-4-[1-(isobutyrylamino)ethyl]benzamide], the IC50 was more than 1000 nM. On the same count and under the same terms, the value for `CC(NC(=O)CC1CCOCC1)c1ccc(C(=O)NO)cc1` (centres unmarked) [Compound I-313, N-hydroxy-4-{1-[(tetrahydro-2H-pyran-4-ylacetyl)amino]ethyl}benzamide] was more than 1000 nM; that for `CC(NC(=O)c1ccccc1C(F)(F)F)c1cccc(C(=O)NO)c1` (centres unmarked) [Compound I-57, N-(1-{3-[(hydroxyamino)carbonyl]phenyl}ethyl)-2-(trifluoromethyl)benzamide] was more than 1000 nM. The compound `CC(C)(C)C(NC(=O)Cc1csc2ccc(Cl)cc12)c1ccc(C(=O)NO)cc1` (centres unmarked) [Compound I-345, 4-(1-{[(5-chloro-1-benzothien-3-yl)acetyl]amino}-2,2-dimethylpropyl)-N-hydroxybenzamide] returned an IC50 of more than 1000 nM. `Cc1c(C(=O)NC(C)c2cccc(C(=O)NO)c2)cnn1-c1ccccc1` (centres unmarked) [Compound I-257, N-(1-{3-[(hydroxyamino)carbonyl]phenyl}ethyl)-5-methyl-1-phenyl-1H-pyrazole-4-carboxamide] displayed an IC50 of more than 1000 nM.

Staying with this test, now noted: purified human HDAC6, substrate Ac-Arg-Gly-Lys(Ac)-AMC, 1 hour at 30° C.; reported as bins.
Compound `COc1ccc(C(=O)N[C@@H](c2ccc(C(=O)NO)cc2)C(F)(F)F)cc1` [Compound I-122, 4-methoxy-N-((1S)-2,2,2-trifluoro-1-{4-[(hydroxyamino)carbonyl]phenyl}ethyl)benzamide] displayed an IC50 of less than 100 nM. `CC(=O)c1cccc(NC(=O)NC(C)c2ccc(C(=O)NO)cc2)c1` (centres unmarked) [Compound I-358, 4-[1-({[(3-acetylphenyl)amino]carbonyl}amino)ethyl]-N-hydroxybenzamide] showed an IC50 of less than 100 nM. `Cc1nc2cc(C(=O)NC(C)c3ccc(C(=O)NO)cc3)ccc2s1` (centres unmarked) [Compound I-230, N-(1-{4-[(hydroxyamino)carbonyl]phenyl}ethyl)-2-methyl-1,3-benzothiazole-5-carboxamide]: the IC50 was less than 100 nM.

In the case of `Cc1ccc(NC(=O)NC(C)c2ccc(C(=O)NO)cc2)cc1Cl` (centres unmarked) [Compound I-103, 4-[1-({[(3-chloro-4-methylphenyl)amino]carbonyl}amino)ethyl]-N-hydroxybenzamide], the IC50 was less than 100 nM.

The compound `COc1cc(C(=O)NC(C)c2ccc(C(=O)NO)cc2)ccc1F` (centres unmarked) [Compound I-164, 4-fluoro-N-(1-{4-[(hydroxyamino)carbonyl]phenyl}ethyl)-3-methoxybenzamide] displayed an IC50 of less than 100 nM. In the case of `Cc1cc(C(=O)NC(C)c2ccc(C(=O)NO)cc2)n(C)n1` (centres unmarked) [Compound I-288, N-(1-{4-[(hydroxyamino)carbonyl]phenyl}ethyl)-1,3-dimethyl-1H-pyrazole-5-carboxamide], the IC50 is less than 100 nM. The same measure, in the same setting: then `CC(C)C(NC(=O)c1nc2ccccc2s1)c1ccc(C(=O)NO)cc1` (centres unmarked) [Compound I-191, N-(1-{4-[(hydroxyamino)carbonyl]phenyl}-2-methylpropyl)-1,3-benzothiazole-2-carboxamide], with less than 100 nM; and `CC(NC(=O)Nc1cc(C(F)(F)F)ccc1F)c1ccc(C(=O)NO)cc1` (centres unmarked) [Compound I-334, 4-{1-[({[2-fluoro-5-(trifluoromethyl)phenyl]amino}carbonyl)amino]ethyl}-N-hydroxybenzamide], with less than 100 nM. With `C[C@H](NC(=O)c1cc2ccccc2s1)c1ccc(C(=O)NO)cc1` [Compound I-53, N-((1S)-1-{4-[(hydroxyamino)carbonyl]phenyl}ethyl)-1-benzothiophene-2-carboxamide], the IC50 was less than 100 nM. In the case of `CC(NC(=O)c1ccc2nsnc2c1)c1ccc(C(=O)NO)cc1` (centres unmarked) [Compound I-233, N-(1-{4-[(hydroxyamino)carbonyl]phenyl}ethyl)-2,1,3-benzothiadiazole-5-carboxamide], the IC50 is less than 100 nM. Compound `Cc1cc(C)c(C(=O)NC(c2ccc(C(=O)NO)cc2)C(C)(C)C)[nH]1` (centres unmarked) [Compound I-262, N-(1-{4-[(hydroxyamino)carbonyl]phenyl}-2,2-dimethylpropyl)-3,5-dimethyl-1H-pyrrole-2-carboxamide] yielded an IC50 of 100 to 500 nM.

`CC(C)[C@@H](NC(=O)Nc1cccc2ccccc12)c1ccc(C(=O)NO)cc1` [Compound I-524, N-hydroxy-4-((1R)-2-methyl-1-{[(1-naphthylamino)carbonyl]amino}propyl)benzamide] returned an IC50 of less than 100 nM.

Take `O=C(NO)c1ccc([C@H](NC(=O)c2cc3ccccc3s2)c2ccccc2)cc1` [Compound I-99, N-[(R)-{4-[(hydroxyamino)carbonyl]phenyl}(phenyl)methyl]-1-benzothiophene-2-carboxamide]: the IC50 is less than 100 nM. On to `Cc1ccc(NC(=O)NC(C)c2ccc(C(=O)NO)cc2)c(C)c1` (centres unmarked) [Compound I-383, 4-[1-({[(2,4-dimethylphenyl)amino]carbonyl}amino)ethyl]-N-hydroxybenzamide], for which the IC50 is less than 100 nM. As to `COc1ccc(C)cc1NC(=O)NC(C)c1ccc(C(=O)NO)cc1` (centres unmarked) [Compound I-253, N-hydroxy-4-[1-({[(2-methoxy-5-methylphenyl)amino]carbonyl}amino)ethyl]benzamide], the IC50 is less than 100 nM. Turning to `CC(C)C(NC(=O)c1ccc2occc2c1)c1ccc(C(=O)NO)cc1` (centres unmarked) [Compound I-194, N-(1-{4-[(hydroxyamino)carbonyl]phenyl}-2-methylpropyl)-1-benzofuran-5-carboxamide], the IC50 is less than 100 nM. In turn, `CC(C)(C)C(NC(=O)c1cccs1)c1ccc(C(=O)NO)cc1` (centres unmarked) [Compound I-215, N-(1-{4-[(hydroxyamino)carbonyl]phenyl}-2,2-dimethylpropyl)thiophene-2-carboxamide] returned an IC50 of 100 to 500 nM. Regarding `Cc1nc(-c2ccccc2)ncc1C(=O)NC(c1ccc(C(=O)NO)cc1)C(C)C` (centres unmarked) [Compound I-17, N-(1-{4-[(hydroxyamino)carbonyl]phenyl}-2-methylpropyl)-4-methyl-2-phenylpyrimidine-5-carboxamide], the IC50 lay within 100 to 500 nM.

On to `CC(C)[C@@H](NC(=O)N[C@@H](C)c1ccccc1)c1ccc(C(=O)NO)cc1` [Compound I-516, N-hydroxy-4-{(1R)-2-methyl-1-[({[(1S)-1-phenylethyl]amino}carbonyl)amino]propyl}benzamide], for which the IC50 is less than 100 nM. In the case of `CC(NS(=O)(=O)c1cc2ccccc2s1)c1ccc(C(=O)NO)cc1` (centres unmarked) [Compound I-369, 4-{1-[(1-benzothien-2-ylsulfonyl)amino]ethyl}-N-hydroxybenzamide], the IC50 was 100 to 500 nM. As to `CCC[C@@H](NC(=O)c1sc2ccccc2c1C)c1ccc(C(=O)NO)cc1` [Compound I-62, N-((1R)-1-{4-[(hydroxyamino)carbonyl]phenyl}butyl)-3-methyl-1-benzothiophene-2-carboxamide], the IC50 is less than 100 nM. `CC(C)[C@@H](NC(=O)C(C)(C)C)c1ccc(C(=O)NO)cc1` [Compound I-287, 4-{(1R)-1-[(2,2-dimethylpropanoyl)amino]-2-methylpropyl}-N-hydroxybenzamide] returned an IC50 of less than 100 nM.
